Measurements published in patent publication US11857601B2, “Pharmaceutical composition for cancer treatment comprising fusion protein including IL-2 protein and CD80 protein and anticancer drug” (GI INNOVATION, INC., priority 2020, dated 2024).

Legend:
[1] = test system: CD8+ T cells and CD4+/FoxP3+ Treg cells; experiment: Proliferation of CD8+ T cells and Treg cells in PBMCs (Exp. Ex. 10); type: cell-based, human
Procedure: Human PBMCs were purchased from Allcells (Lot #3014928, USA). […] CellTrace CFSE dye was used, which was reacted with the human PBMCs under a light-blocking condition at […] for 20 minutes. The cells were labeled with CFSE by being reacted with 1 μM CellTrace CFSE dye at 37° C. for 20 minutes. CFSE not bound to the cells was removed by being reacted for 5 minutes with a culture medium having a 5-fold volume of the staining reaction solution and then by being centrifuged at 1,300 rpm for 5 minutes. The CFSE-labeled PBMCs were resuspended in the culture medium (RPMI1640 medium containing 10% fetal bovine serum, 10 mM HEPES, 100 U/ml penicillin/streptomycin, 1 mM sodium pyruvate, 55 μM 2-mercaptoethanol, 1 mM non-essential amino acid, and 2 mM L-glutamine), and then added to a 96-well microplate at 1×10^5 cells per well.
The incubated cells were examined for their degree of proliferation by measuring, with FACS analysis using anti-human CD4-PE antibody (BioLegend, USA), anti-human CD8-PE/Cy7 antibody (BioLegend, USA), and anti-human FoxP3-APC antibody (BioLegend, USA), a proportion of CD8+ T cells that had not been labeled with CFSE.

[2] = test system: immune cells in cancer tissues; experiment: Immune cell analysis in LL/2 cancer tissue (FACS); type: in vivo, C57BL/6 mice
Procedure: The mice of each group in Experimental Example 16.1 were sacrificed when the tumor volume reached an average of 200 mm^3, and cancer tissues were collected.
Thereafter, FACS analysis was performed in the same manner as Experimental Example 16.2. to analyze immune cells in the cancer tissues.

[3] = test system: NCl-H292 cancer cell line with human PBMCs; experiment: T cell activity inhibition by cancer cells expressing PD-L1 and CTLA-4 (IFN-γ ELISA); type: cell-based; conditions: 50 nM, 3 days
Procedure: NCl-H292 cancer cell line expressing PD-L1 and CTLA-4 was cultured for 3 hours in a culture medium containing 10 μg/ml Mitomycin C (Sigma), and then Mitomycin C was removed by washing with the culture medium. Thereafter, 5×10^4 cells of the Mitomycin C-treated NCl-H292 cancer cell line were incubated with 1×10^5 cells of human PBMCs in a 96-well microplate. Here, treatment with 5 μg/ml of PHA (Sigma) was performed for T cell activity. […] After 3 days, the supernatant of the cell culture was collected and the amount of IFN-γ was quantified using an ELISA kit (Biolegend).
As a positive control, human PBMCs stimulated with PHA in the absence of the Mitomycin C-treated NCl-H292 cancer cell line were used; and as a negative control, human PBMCs stimulated with PHA in the presence of the Mitomycin C-treated NCl-H292 cancer cell line were used. An experimental method using the IFN-7 ELISA kit was carried out in the same manner as in Experimental Example 9.3.

[4] = test system: effector CD8+ T cells, NK cells, Treg cells; experiment: Effect on mouse immune cells in spleen; type: in vivo, C57BL/6 mice; conditions: 3rd to 14th days after i.v. administration (3, 6 or 12 mg/kg), vs PBS
Procedure: On days 1, 3, 5, 7, and 14 after the injection, the spleen tissues were removed from the mice of each group. Thereafter, for the spleen tissue, the numbers of effector CD8+ T cells, NK cells, and Treg cells were calculated with FACS analysis using respective antibodies, and proportions of effector CD8+ T cells and NK cells with respect to Treg cells were respectively calculated. The information on the antibodies used in each cell analysis is as follows:
Effector CD8+ T cell: PB anti-mouse CD3ε antibody (Biolegend, #155612; KT3.1.1), FITC anti-mouse CD8α antibody (BD, #553031, 53-6.7), PE/Cy7 anti-mouse CD44 antibody (Biolegend, #103030; IM7), APC anti-mouse CD122 antibody (Biolegend, #123214; TM-β1)
NK cell: PB anti-mouse CD3ε antibody (Biolegend, #155612; KT3.1.1), PE anti-mouse NK-1.1 (Biolegend, #108708; PK136)
Treg cell: FITC anti-mouse CD3 antibody (Biolegend, #100204; 17A2), PB anti-mouse CD4 antibody (Biolegend, #100531; RM4-5), PE anti-mouse CD25 antibody (Biolegend, #102008; PC61), APC anti-mouse Foxp3 antibody (Invitrogen, #FJK-16s, 17-5773-82).

[5] = test system: 4T1 cells; experiment: mGI-101 and Abemaciclib in 4T1 allotransplanted tumor model; type: in vivo, BALB/c mice; conditions: 11 mice per group
Procedure: 4T1 cells were purchased from ATCC (USA) and cultured in RPMI1640 medium (Gibco) containing 10% FBS (Gibco) and 1% antibiotic/antifungal agent (Gibco). The cultured cells were harvested using trypsin (Gibco) and then suspended in PBS. In order to establish an allotransplanted tumor model, 1×10^5 of 4T1 cells were subcutaneously injected into the back of BALB/c female mice (8-week-old).
A certain period of time after cell inoculation of the tumor grafts of the mice, the tumor volume was measured for animals with no abnormalities in the health condition of the animals, and the mice were randomly selected and assigned, each group including 11 mice.
The death of the mouse, the type of general symptoms, the date of onset, and the severity of symptoms were observed once a day during the test period, and recorded for each subject.
The tumor volume before administration of each subject was set as the value measured at the time of grouping, and the anti-tumor efficacy was evaluated as compared with the vehicle control.
All statistical calculations were performed using Prism 8.0 (Graph Pad Software Inc, USA). The comparison of tumor volume measurements was made through two-way analysis of variance followed by Tukey's multiple comparison test. A p value of less than 0.05 was considered significant.

Substance	proportion of CD8+ T cells ([1]; anti-CD3ε 1 μg/ml, 7 days, compared with no stimulus, anti-CD3 antibody alone and GI101C1)	proliferation of CD4+/FoxP3+ Treg cells ([1]; compared with no stimulus and anti-CD3 antibody alone)	CD8+ T cells in cancer tissue ([2]; 0.1 mg/kg, compared with anti-PD-1 antibody alone)	level of CD86 expression in macrophages and dendritic cells ([2]; all GI101 groups)	level of expression of IFN-γ ([2]; all GI101 groups, vs negative control)	immune response inhibited by the cancer cell line overexpressing PD-L1 (IFN-γ) [3]	signaling of CTLA-4 expressed on effector T cells [3]	numbers of CD8+ T cells and NK cells [4]	number of mice with tumor growth inhibition rate of 30% or more [5]	number of mice with tumor growth inhibition rate of 50% or more [5]	number of mice with tumor growth inhibition rate of 80% or more [5]
GI101: fusion protein: human CD80 fragment, Ig hinge, Fc domain, linker, IL-2 variant (2M) (R38A, F42A); SEQ ID NO: 9	significant increase	significant increase	significant increase	increased level	significantly increased level	effectively activated	inhibited				
mGI101: fusion protein: mouse CD80, Ig hinge, Fc domain, linker, IL-2 variant (2M) (R38A, F42A); SEQ ID NO: 15								significant increase	3 mice	1 mice	no mouse
